Measured values as given in publication PMC9920413, “New Bicyclic Pyridine-Based Hybrids Linked to the 1,2,3-Triazole Unit: Synthesis via Click Reaction and Evaluation of Neurotropic Activity and Molecular Docking” (Molecules, 2023).
“And” between values parts separate entries of the source, which are not always exact repeats. Identical values can stand only once.

Key:
mice [1] = test: Rotating rod test (neurotoxicity, myorelaxation); format: in vivo; conditions: i.p., myorelaxation in 50% of animals
Method: (§1) The study of the anticonvulsant activity of hybrids 7a–u was assessed by evaluating the antagonism to pentylenetetrazole (PTZ), thiosemicarbazide convulsive seizures, and maximal electroshock-induced seizures (MES). The PTZ-induced test is considered an experimental model for the clonic component of epilepsy seizures and the prognostic anxiolytic activity of the compounds. PTZ is a common convulsive agent used in animal models to investigate the mechanisms of seizures. The model of thiosemicarbazide (TSC) seizures (affecting the exchange of GABA) causes clonic seizures similar to pentylenetetrazole ones. The MES test is used as an animal model for the generalization of tonic seizures in epilepsy. The neurotoxicity and side effects of the compounds (movement coordination disorder, myorelaxation, and ataxia) were also studied on mice with the “rotating rod”[29] test.
(§2) Adverse neurotoxic (muscle relaxant) effects of compounds were studied at doses of 50 to 500 mg/kg when administered intraperitoneally, as well as reference drugs in effect at anticonvulsant doses. Myorelaxation was investigated with the test of a “rotating rod” in mice. To this end, mice were planted on a metal rod with a corrugated rubber coating, which rotated at a speed of 5 revolutions per minute. The number of animals that cnot stay on it for 2 min was determined. To determine the ED50, neurotoxic TD50, and LD50, the statistical method of penetration by Litchfield and Wilcoxon was used.

[2] = tested on: thiosemicarbazide (TSC)-induced convulsions; test: Thiosemicarbazide (TSC) seizures; format: in vivo, mice; conditions: mice; for Latency of Convulsions, Induced by TSC, M ± M: compound 100 mg/kg i.p. 45 min before TSC 18 mg/kg s.c.; for Latency of Convulsions, Induced by TSC, I (index of latent period of TSC seizures): compound 100 mg/kg i.p., relative to control = 1.0
Method: as §1
Thiosemicarbazide, an antimetabolite of GABA inhibitor (glutamic acid decarboxylase) in the brain, is administered subcutaneously to mice at a dose of 18 mg/kg as a 0.5% solution, which causes clonic convulsions in animals. Anti-thiosemicarbazide activity was evaluated based on the latency time of the onset of seizures. Compounds were administered intraperitoneally at doses of 100 mg/kg in suspension with carboxymethylcellulose and Tween-80 45 min before administration of thiosemicarbazide.

rats [3] = test: Open field test; format: in vivo; conditions: 50 mg/kg i.p.; for Cells Examination, amount (absolute data during 5 min): control 2.4 ± 0.67; for Vertical Displacement, amount (absolute data during 5 min): control 7.0 ± 2.14; for Horizontal Displacement, amount (absolute data during 5 min): control 21.6 ± 2.25
Method: Open field test. The research-motor behavior of rats was studied on a modified “open field” model. For this purpose, an installation was used, the bottom of which is divided into squares with holes (cells). Experiments were performed in the daytime with natural light. Within 5 min of the experiment, the indicators of sedative and activating behavior were determined, namely the number of horizontal movements, standing on the hind legs (vertical movements), and sniffing of the cells. The number of animals on this model was eight for each compound, control, and reference drug.

mice [4] = test: Forced swimming test; conditions: 50 mg/kg, 6 min; for Total Time of Immobilization: control 42.0 ± 7.24; for Total Time of Active Swimming: control 318.0 ± 8.36;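 on all read-outs here: mice made to swim in a water-filled glass vessel under natural light, with durations of active swimming and immobility recorded across the 6 min session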
Method: Forced swimming test. To assess “despair and depression”, the “compelling swimming” model was used. Experimental animals were forced to swim in a glass container (height 22 cm, diameter 14 cm), filled 1/3 with water. […] The latent period of immobilization, the total duration of active swimming and immobilization are fixed at 6 min (the experiments were conducted under natural light).

[5] = tested on: pentylenetetrazole (PTZ)-induced convulsions; test: Antagonism to pentylenetetrazole (PTZ) convulsions; format: in vivo; conditions: for ED50 (by PTZ antagonism): mice, i.p. 45 min before PTZ 90 mg/kg s.c., confidence limits in brackets, p = 0.05; for TI: therapeutic index TI = LD50/ED50
Method: as §1
The anticonvulsant effect of the newly synthesized compounds was investigated by tests comprising pentylenetetrazole, thiosemicarbazide convulsions, and maximal electroshock (MES). Outbred mice (weight 18–22 g) were used for the study. […] Each animal is placed into an individual plastic cage for observation lasting 1 h. Seizures and clonic convulsions were recorded. […] The control animals were administered as an emulsifier. Every dose of each test compound was studied in six animals.
as §2

rats [6] = test: Electroshock retrograde amnesia, conditioned response of passive avoidance (CRPA); format: in vivo; conditions: 50 mg/kg, study for 5 min; for The Time Spent in the Light Chamber during the Training of the CRPA, First Day: control 280.0 ± 7.5; for The Time Spent in the Light Chamber When Playing CRPA + MESH after 24 h, Second Day: control 281.0 ± 6.1
Method: Test for learning and memory. The antiamnesic properties of the compounds were studied using an electroshock amnesia model modified by J. Bures, O. Buresova. In rats, a conditioned passive avoidance reaction (CRPA) to a dark-light setting was developed, while the training of the animals with CRPA was recorded. The residence times in the light and dark compartments were recorded for 5 min (300 s). Then, in the dark compartment, the animal received a single current shock (0.4 mA) through the electrode floor (training). To obtain amnesia, a maximum electroconvulsive seizure is induced in animals (conducting a maximum electric current of 50 Hz for 0.2 s through corneal electrodes). Conducting an electric shock immediately after training causes the erasure of the memory trace. The test for reproduction is carried out 24 h after training—after the development of CRPA. During this period, the control animals forget the training and prefer to be in the dark part of the chamber. An increase in the time spent by rats in the light compartment compared to the control on the second day indicates the presence of antiamnestic properties of the compounds.

mice [7] = test: in vivo; conditions: dead animals after 24 h
Method: as §2

mouse = test: Elevated plus maze (EPM) test; format: in vivo; conditions: 50 mg/kg i.p., 5 min; for Number of Entries into the Closed Arms: control 9.4 ± 1.6; for Time Spent in the Center: control 28.2 ± 3.12; for Time Spent in Closed Arms: control 269.2 ± 10.4
Description: Elevated plus maze—EPM test. Anti-anxiety and sedative effects were studied on mouse a model of the “elevated plus maze”. The labyrinth is a cruciform machine raised above the floor, with a pair of open and closed sleeves opposed to each other. Normal animals prefer to spend most of their time in the closed (dark) sleeves of the labyrinth. The anxiolytic effect of the compounds was estimated by the increase in the number of entries into open (light) sleeves and the time spent in them without increasing the total motor activity. This records the time spent in the closed sleeve and the number of attempts to enter the installation center. In the above model, the test compounds and the reference drug were injected intraperitoneally before the experiments. The control animals were administered as an emulsifier. Results were processed statistically (p < 0.05).

Compound	TD50 (mice [1])	Latency of Convulsions, Induced by TSC, M ± M [2]	Latency of Convulsions, Induced by TSC, I (index of latent period of TSC seizures) [2]	Cells Examination, amount (absolute data during 5 min) (rats [3])	Vertical Displacement, amount (absolute data during 5 min) (rats [3])	Horizontal Displacement, amount (absolute data during 5 min) (rats [3])	Total Time of Immobilization (mice [4])	Total Time of Active Swimming (mice [4])	ED50 (by PTZ antagonism) [5]	TI [5]	The Time Spent in the Light Chamber during the Training of the CRPA, First Day (rats [6])	The Time Spent in the Light Chamber When Playing CRPA + MESH after 24 h, Second Day (rats [6])	LD50 (mice [7])	Time Spent in the Open Arms (mouse; control 2.6 ± 1.6, 50 mg/kg)	Number of Entries into the Closed Arms (mouse)	Time Spent in the Center (mouse)	Time Spent in Closed Arms (mouse)	Time Spent in the Open Arms (mouse; control 2.6 ± 1.6)	melting point
6-{4-[(4-{[(4-Cyano-1-isopropyl-5,6,7,8-tetrahydroisoquinolin-3-yl)oxy]methyl}-1H-1,2,3-triazol-1-yl)acetyl]piperazin-1-yl}-1,3,3-trimethyl-3,4-dihydro-1H-pyrano [3,4-c]pyridine-5-carbonitrile [7g]	>500 mg/kg	28.4 ± 0.67 min	2.84	10.0 ± 3.56	9.0 ± 2.34	49.0 ± 7.16	3.0 ± 0.6 s	357.0 ± 13.5 s	18 (10.6 ÷ 30.6) mg/kg	37.8	283.0 ± 5.2 s	297.0 ± 7.2 s	680 (571 ÷ 809) mg/kg	6.6 s and 6.6 ± 2.3 s	6.0 ± 1.67	53.4 ± 3.53 s	237.8 ± 12.5 s	–	–
6-{4-[(4-{[(4-Cyano-1-isopropyl-5,6,7,8-tetrahydroisoquinolin-3-yl)oxy]methyl}-1H-1,2,3-triazol-1-yl)acetyl]piperazin-1-yl}-3,3-dimethyl-1-propyl-3,4-dihydro-1H-pyrano [3,4-c]pyridine-5-carbonitrile [7i]	>500 mg/kg	41.0 ± 1.75 min	4.1	3.4 ± 1.89	15.0 ± 4.28	50.2 ± 5.5	62.0 ± 5.04 s	300.0 ± 19.35 s	–	20.4	286.0 ± 6.3 s	299.0 ± 6.3 s	695 (579 ÷ 834) mg/kg	–	2.2 ± 0.61	16.0 ± 5.2 s	242.0 ± 16.46 s	42.0 ± 8.43 s	–
6-{4-[(4-{[(4-Cyano-1-methyl-5,6,7,8-tetrahydroisoquinolin-3-yl)oxy]methyl}-1H-1,2,3-triazol-1-yl)acetyl]piperazin-1-yl}-1,3,3-trimethyl-3,4-dihydro-1H-pyrano [3,4-c]pyridine-5-carbonitrile [7d]	>500 mg/kg	41.2 ± 1.61 min	4.12	6.2 ±0.38	14.4 ± 3.98	38.6 ± 5.18	77.4 ± 7.1 s	300.0 ± 29.2 s	16 (13.1 ÷ 19.5) mg/kg	–	284.0 ± 6.8 s	299.0 ± 7.2 s	800 (672 ÷ 952) mg/kg	–	1.36 ± 0.8	15.0 ± 3.62 s	264 ± 8.12 s	21.0 ± 3.2 s	–
6-{4-[(4-{[(5-Cyano-3,3,8-trimethyl-3,4-dihydro-1H-pyrano [3,4-c]pyridin-6-yl)oxy]methyl}-1H-1,2,3-triazol-1-yl)acetyl]piperazin-1-yl}-1-ethyl-3,3-dimethyl-3,4-dihydro-1H-pyrano [3,4-c]pyridine-5-carbonitrile [7n]	>500 mg/kg	41.2 ± 1.61 min	4.12	3.0 ± 0.89	11.6 ± 2.5	52.2 ± 12.2	42.0 ± 12.04 s	324.0 ± 22.4 s	26 (18.6 ÷ 36.4) mg/kg	31.5	283.0 ± 7.1 s	297.0 ± 6.8 s	820 (689 ÷ 976) mg/kg	–	1.4 ± 1.2	82.0 ± 15.2 s	204.0 ± 14.2 s	12.0 ± 1.4 s	–
CCCc1nc(N2CCN(C(=O)Cn3cc(COc4nc(-c5ccco5)c5c(c4C#N)CCCC5)nn3)CC2)c(C#N)c2c1COC(C)(C)C2 [7l, 6-(4-{[4-({[4-Cyano-1-(2-furyl)-5,6,7,8-tetrahydroisoquinolin-3-yl]oxy}methyl)-1H-1,2,3-triazol-1-yl]acetyl}piperazin-1-yl)-3,3-dimethyl-8-propyl-3,4-dihydro-1H-pyrano [3,4-c]pyridine-5-carbonitrile]	–	–	–	–	–	–	–	–	–	–	–	–	–	–	–	–	–	–	144 to 146 °C
CCCc1nc(OCc2cn(CC(=O)N3CCN(c4nc(C)c5c(c4C#N)CC(C)(C)OC5)CC3)nn2)c(C#N)c2c1COC(C)(C)C2 [7s, 6-{4-[(4-{[(5-Cyano-3,3-dimethyl-8-propyl-3,4-dihydro-1H-pyrano [3,4-c]pyridin-6-yl)oxy]methyl}-1H-1,2,3-triazol-1-yl)acetyl]piperazin-1-yl}-3,3,8-trimethyl-3,4-dihydro-1H-pyrano [3,4-c]pyridine-5-carbonitrile]	–	–	–	–	–	–	–	–	–	–	–	–	–	–	–	–	–	–	192 to 194 °C
